According to the supplement of paper PMC10307832:

Key:
Test in all cases: relative viability (nuclei count vs DMSO), 5 days (fraction); higher = more cells survive
H3255 = system: H3255
Summary of the method: (§1)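 Relative viability is defined as nuclei in treated wells over nuclei in vehicle wells. Duplicate plates were run and medians reported. Lung cancer cell lines in 1536-well plates were dosed by pin tool one day after seeding, with one drug or with a fixed anchor-drug dose plus five library-drug doses (not always all listed) in √10 steps, and nuclei were counted after 5 days.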

PC-14 = system: PC-14
Summary of the method: as §1

NCI-H727 = system: NCI-H727
Summary of the method: as §1

NCI-H460 = system: NCI-H460
Summary of the method: as §1

LCLC-103H = system: LCLC-103H
Summary of the method: as §1

NCI-H1793 = system: NCI-H1793
Summary of the method: as §1

201T = system: 201T
Summary of the method: as §1

NCI-H2228 = system: NCI-H2228
Summary of the method: as §1

LU99A = system: LU99A
Summary of the method: as §1

SW 1573 = system: SW 1573
Summary of the method: as §1

A-427 = system: A-427
Summary of the method: as §1

NCI-H1650 = system: NCI-H1650
Summary of the method: as §1

NCI-H2347 = system: NCI-H2347
Summary of the method: as §1

LK-2 = system: LK-2
Summary of the method: as §1

HCC-44 = system: HCC-44
Summary of the method: as §1

NCI-H23 = system: NCI-H23
Summary of the method: as §1

SW 900 = system: SW 900
Summary of the method: as §1

LC-2-ad = system: LC-2-ad
Summary of the method: as §1

COR-L23 = system: COR-L23
Summary of the method: as §1

LCLC-97TM1 = system: LCLC-97TM1
Summary of the method: as §1

SMILES: Nc1ccn([C@@H]2O[C@H](CO)[C@@H](O)[C@@H]2O)c(=O)n1 [Cytarabine] + CC(=O)c1c(C)c2cnc(Nc3ccc(N4CCNCC4)cn3)nc2n(C2CCCC2)c1=O [Palbociclib] (partner 0.5 µM)
- relative viability (H3255; first compound 0.005 µM): 0.33
- relative viability (H3255; first compound 0.01581 µM): 0.32
- relative viability (H3255; first compound 0.05 µM): 0.281
- relative viability (H3255; first compound 0.1581 µM): 0.265
- relative viability (H3255; first compound 0.5 µM): 0.261
- relative viability (PC-14; first compound 0.005 µM): 0.432
- relative viability (PC-14; first compound 0.01581 µM): 0.366
- relative viability (PC-14; first compound 0.05 µM): 0.365
- relative viability (PC-14; first compound 0.1581 µM): 0.0885
- relative viability (PC-14; first compound 0.5 µM): 0.0651
- relative viability (NCI-H727; first compound 0.005 µM): 0.613
- relative viability (NCI-H727; first compound 0.01581 µM): 0.556
- relative viability (NCI-H727; first compound 0.05 µM): 0.599
- relative viability (NCI-H727; first compound 0.1581 µM): 0.554
- relative viability (NCI-H727; first compound 0.5 µM): 0.505
- relative viability (NCI-H460; first compound 0.005 µM): 0.156
- relative viability (NCI-H460; first compound 0.01581 µM): 0.0617
- relative viability (NCI-H460; first compound 0.05 µM): 0.0499
- relative viability (NCI-H460; first compound 0.1581 µM): 0.0475
- relative viability (NCI-H460; first compound 0.5 µM): 0.044
- relative viability (LCLC-103H; first compound 0.005 µM): 0.488
- relative viability (LCLC-103H; first compound 0.01581 µM): 0.429
- relative viability (LCLC-103H; first compound 0.05 µM): 0.498
- relative viability (LCLC-103H; first compound 0.1581 µM): 0.439
- relative viability (LCLC-103H; first compound 0.5 µM): 0.492
- relative viability (NCI-H1793; first compound 0.005 µM): 0.341
- relative viability (NCI-H1793; first compound 0.01581 µM): 0.267
- relative viability (NCI-H1793; first compound 0.05 µM): 0.268
- relative viability (NCI-H1793; first compound 0.1581 µM): 0.228
- relative viability (NCI-H1793; first compound 0.5 µM): 0.262
- relative viability (201T; first compound 0.005 µM): 0.369
- relative viability (201T; first compound 0.01581 µM): 0.335
- relative viability (201T; first compound 0.05 µM): 0.356
- relative viability (201T; first compound 0.1581 µM): 0.271
- relative viability (201T; first compound 0.5 µM): 0.31
- relative viability (NCI-H2228; first compound 0.005 µM): 0.445
- relative viability (NCI-H2228; first compound 0.01581 µM): 0.343
- relative viability (NCI-H2228; first compound 0.05 µM): 0.215
- relative viability (NCI-H2228; first compound 0.1581 µM): 0.131
- relative viability (NCI-H2228; first compound 0.5 µM): 0.116
- relative viability (LU99A; first compound 0.005 µM): 0.409
- relative viability (LU99A; first compound 0.01581 µM): 0.399
- relative viability (LU99A; first compound 0.05 µM): 0.391
- relative viability (LU99A; first compound 0.1581 µM): 0.388
- relative viability (LU99A; first compound 0.5 µM): 0.288
- relative viability (SW 1573; first compound 0.005 µM): 0.334
- relative viability (SW 1573; first compound 0.01581 µM): 0.407
- relative viability (SW 1573; first compound 0.05 µM): 0.281
- relative viability (SW 1573; first compound 0.1581 µM): 0.147
- relative viability (SW 1573; first compound 0.5 µM): 0.117
- relative viability (A-427; first compound 0.005 µM): 0.437
- relative viability (A-427; first compound 0.01581 µM): 0.474
- relative viability (A-427; first compound 0.05 µM): 0.363
- relative viability (A-427; first compound 0.1581 µM): 0.281
- relative viability (A-427; first compound 0.5 µM): 0.273
- relative viability (NCI-H1650; first compound 0.005 µM): 0.317
- relative viability (NCI-H1650; first compound 0.01581 µM): 0.319
- relative viability (NCI-H1650; first compound 0.05 µM): 0.318
- relative viability (NCI-H1650; first compound 0.1581 µM): 0.163
- relative viability (NCI-H1650; first compound 0.5 µM): 0.186
- relative viability (NCI-H2347; first compound 0.005 µM): 0.416
- relative viability (NCI-H2347; first compound 0.01581 µM): 0.433
- relative viability (NCI-H2347; first compound 0.05 µM): 0.413
- relative viability (NCI-H2347; first compound 0.1581 µM): 0.386
- relative viability (NCI-H2347; first compound 0.5 µM): 0.407
- relative viability (LK-2; first compound 0.005 µM): 0.634
- relative viability (LK-2; first compound 0.01581 µM): 0.267
- relative viability (LK-2; first compound 0.05 µM): 0.233
- relative viability (LK-2; first compound 0.1581 µM): 0.14
- relative viability (LK-2; first compound 0.5 µM): 0.107
- relative viability (HCC-44; first compound 0.005 µM): 0.997
- relative viability (HCC-44; first compound 0.01581 µM): 0.942
- relative viability (HCC-44; first compound 0.05 µM): 0.911
- relative viability (HCC-44; first compound 0.1581 µM): 0.806
- relative viability (HCC-44; first compound 0.5 µM): 0.812
- relative viability (NCI-H23; first compound 0.005 µM): 0.617
- relative viability (NCI-H23; first compound 0.01581 µM): 0.367
- relative viability (NCI-H23; first compound 0.05 µM): 0.299
- relative viability (NCI-H23; first compound 0.1581 µM): 0.193
- relative viability (NCI-H23; first compound 0.5 µM): 0.169
- relative viability (SW 900; first compound 0.005 µM): 0.536
- relative viability (SW 900; first compound 0.01581 µM): 0.515
- relative viability (SW 900; first compound 0.05 µM): 0.451
- relative viability (SW 900; first compound 0.1581 µM): 0.362
- relative viability (SW 900; first compound 0.5 µM): 0.292
- relative viability (LC-2-ad; first compound 0.005 µM): 0.412
- relative viability (LC-2-ad; first compound 0.01581 µM): 0.417
- relative viability (LC-2-ad; first compound 0.05 µM): 0.505
- relative viability (LC-2-ad; first compound 0.1581 µM): 0.379
- relative viability (LC-2-ad; first compound 0.5 µM): 0.412
- relative viability (COR-L23; first compound 0.005 µM): 0.203
- relative viability (COR-L23; first compound 0.01581 µM): 0.228
- relative viability (COR-L23; first compound 0.05 µM): 0.176
- relative viability (COR-L23; first compound 0.1581 µM): 0.115
- relative viability (COR-L23; first compound 0.5 µM): 0.122
- relative viability (LCLC-97TM1; first compound 0.005 µM): 0.186
- relative viability (LCLC-97TM1; first compound 0.01581 µM): 0.135
- relative viability (LCLC-97TM1; first compound 0.05 µM): 0.198
- relative viability (LCLC-97TM1; first compound 0.1581 µM): 0.124
- relative viability (LCLC-97TM1; first compound 0.5 µM): 0.0884
